{"source": "patent US20030045478A1", "about": "“Gamma-ketoacid dipeptide derivatives as inhibitors of caspase-3” (priority 2000, published 2003)", "origin": "cited, not measured here", "key": {"caspase-3": {"target": "T1, caspase-3 (Homo sapiens, UniProt P42574)", "T1 sequence (P42574 29-175 limits assumed)": "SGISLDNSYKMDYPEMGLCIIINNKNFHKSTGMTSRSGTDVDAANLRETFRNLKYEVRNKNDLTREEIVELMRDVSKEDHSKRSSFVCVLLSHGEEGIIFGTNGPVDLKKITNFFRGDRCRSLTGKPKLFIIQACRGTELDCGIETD", "T1 sequence (P42574 176-277 limits assumed)": "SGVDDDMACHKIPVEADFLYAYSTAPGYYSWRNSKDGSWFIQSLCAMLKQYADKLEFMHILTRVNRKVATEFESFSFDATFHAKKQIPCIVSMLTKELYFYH"}, "caspase-1": {"target": "T2, caspase-1 (Homo sapiens, UniProt P29466)", "T2 sequence (P29466 120-297 limits assumed)": "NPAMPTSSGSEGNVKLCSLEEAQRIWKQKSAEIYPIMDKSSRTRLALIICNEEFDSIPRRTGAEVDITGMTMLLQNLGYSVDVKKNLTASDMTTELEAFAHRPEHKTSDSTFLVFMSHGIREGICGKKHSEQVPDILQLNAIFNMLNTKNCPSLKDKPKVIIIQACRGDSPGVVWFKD", "T2 sequence (P29466 317-404 limits assumed)": "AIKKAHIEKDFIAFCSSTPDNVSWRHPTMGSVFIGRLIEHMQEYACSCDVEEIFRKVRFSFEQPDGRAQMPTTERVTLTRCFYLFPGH"}}, "data": [{"substance": "Ac-YVAD-CHO", "values": [{"measurement": "Ki", "setting": "caspase-3", "result": 12, "unit": "µM"}, {"measurement": "Ki", "setting": "caspase-1", "result": "< 0.001", "unit": "µM"}]}]}
